Measurements from patent US20200283728A1, “MODIFIED T CELLS AND USES THEREOF” (MUSC FOUNDATION FOR RESEARCH DEVELOPMENT, priority 2017, published 2020).

What was measured:
pmel-1 CD8^+ T cells = test: pmel-1 CD8+ T cells primed with AKTi or CAL-101 in culture: phenotype and expansion; format: cell-based, mouse
Experimental: (§1) Pmel-1 CD8^+ T cells were prepared from whole splenocytes activated using 1 μM hgp100 peptide+100 IU rhIL-2/mL. Starting 3 hours after initial activation, cells were treated with either DMSO vehicle, AKT inhibitor VIII (AKTi) (Calbiochem), or CAL-101 (Selleckchem) at indicated doses. Cells were supplemented with culture media containing 100 IU rhIL-2/mL and vehicle or drug when expanded. Human Normal Donor Peripheral T cells: Polyclonal CD3^+ T cells were prepared via negative bead selection (Dynal) from peripheral blood lymphocytes and activated using CD3/CD28 beads (Gibco) with 100 IU rhIL-2/mL DMSO vehicle, 1 μM or 10 μM AKTi or CAL-101 throughout culture as indicated. On day 2 of culture, T cells were engineered to be mesothelin specific via lentiviral transduction with an anti-mesothelin chimeric antigen receptor (CAR) which contained a single-chain variable fragment (scFv) fusion protein specific for mesothelin and linked to the T cell receptor ζ (TCRζ) signaling domain and 4-1BB as described previously (Carpenito et al., 2009) (gifts from the June lab).
(§2) Surface staining of Th17 cells was performed with anti-CD4-APCCy7, anti-Vβ14-FITC (BD Biosciences) anti-CD62L-APC, anti-CD44-PerCPCy5.5, anti-CCR6-PE, anti-CD69-PECy7, anti-CCR7-PE, anti-CD27-PE, anti-CD28-PerCPCy5.5, anti-ICOS-PE and anti-CD25-PECy7/FITC (BioLegend) and viability stain (Invitrogen) on day 8. For all intracellular staining of cytokines (anti-IL-17 PerCPCy5.5, anti-IFN-γ-v450, anti-IL-2-FITC, anti-IL-21-APC, anti-IL-22-PE, anti-TNF-α-FITC; BioLegend) and transcription factors (anti-RORγt-APC, anti-cMaf-PerCPCy5.5, anti-STAT-3-PE, anti-FoxP3-FITC/PE, anti-T-bet-v450; eBiosciences), cells were stimulated for 4-5 h with 50 ng/mL PMA and 750 ng/mL ionomycin (Sigma-Aldrich). Additional antibodies used include: CD127-PECy7 clone A019D5, CD25-APCCy7 clone BC96, CD4-APCCy7 OKT4, CD45RO-APC clone UCHL1, CD62L-FITC clone DREG-56, CD8-PerCPCy5.5 clone SKI, TIM3-PE clone F38-2E2 (biolegend); CCR7-PECy7 clone CCR7, CD8-V450 clone RPA-T8, PD1-FITC clone M1H4, (BD Biosciences). Antibodies used for mouse cell analysis: CD127-PE/V450 clone A7R34, CD25-FITC clone 7D4, CD44-PerCPCy5.5/FITC clone IM7, CD69-PECy7 clone HI.2F3, CD8-PerCPCy5.5 clone 53-6.7, CD8-PECy7 clone YTS156.7.7, PD1-PerCPCy5.5 clone 29F.1A12 V[…]13-PE/APC clone MR12-3/MR12-4 (Biolegend), CD4-APCCy7 clone RM4-5, CD62L-APC clone MEL-14, KLRG1-APC/V450 clone 2F1 (BD). After 1 h, Monensin (BioLegend) was added per manufacturer's instructions. After surface staining, intracellular staining for cytokines and transcription factors was performed using Fixation and Permeabilization buffers (BioLegend) and Foxp3 Staining Buffers (eBioscience), respectively. Flow cytometry acquisition was performed on a FACSVerse or Accuri (BD Bioscience). Data were analyzed with FlowJo software (TreeStar). For experiments with sorted cells, CD8^+Vb13^+ T cells were sorted from pmel-1 cultures using Dynabeads untouched mouse CD8^+ T cell kit (Invitrogen) and a FACSAria cell sorting machine (BD Biosciences).

human T cells [1] = test: Western blot of nuclear β-catenin, Lef1, Tcf7 in human T cells; format: cell-based
Experimental: (§3) Nuclear and cytoplasmic protein were isolated by lysis using Nuclear and Cytoplasmic Extraction Reagent with Protease&Phosphatase Inhibitor Cocktail (ThermoScientific). Protein concentration was quantified using […] (ThermoScientific) according to the manufacturer's instructions. 10 to 30 μg of total protein was separated on a Mini-PROTEAN TGX, Any kD™ gel, followed by transfer onto PVDF membrane (Bio-Rad). The membranes were blocked with 5% BSA in TBS buffer containing 0.5% Tween20. The membranes were then incubated overnight at 4° C. with the primary antibodies to β-catenin (BD Bioscience), p110δ, Tcf7 (Abcam), RORγt (Affymetrix) phospho-Akt, total-Akt, STAT-3, Histone-3, Lef1 (abcam), and GAPDH (Cell Signaling) at the concentration recommended by manufactures. Subsequently, membranes were washed and incubated for 1 h at room temperature with (HRP)-conjugated goat antibodies to mouse or rabbit IgG (Cell Signaling). For detection of protein, chemiluminescence method was performed using Western ECL Blotting Substrate (Bio-Rad) followed by X-ray film-based imaging method (ThermoScientific). Quantification of optical density performed using Fiji analysis software (NIH).

human CD3^+ T cells = test: Human CD3+ T cells expanded with CD3/CD28 beads under CAL-101 or AKTi; format: cell-based
Experimental: as §1, §2

human T cells [2] = test: RNA sequencing of CAL-101 or AKTi treated human T cells; format: cell-based; conditions: vs vehicle
Experimental: Library preparation: mRNA libraries were prepared in triplicate from each donor using the TruSeq RNA V2 kit(Illumina). Cleaved RNA fragments were copied into first strand cDNA then underwent second strand cDNA synthesis. End repair of cDNA fragments, single ‘A’ base addition and ligation to the adapter followed. The product was then purified and enriched with PCR to create the final cDNA library. Transcriptome sequencing: cDNA libraries were clonally clustered onto the sequencing flow cell using the c-BOT (Illumina) Cluster Generation Station and Hiseq Rapid Paired-End Cluster Kit v2 (Illumina). Clustered flow cells were sequenced on the Illumina HiSeq2500 Sequencing System using the Hiseq Rapid SBS Kit V2 (Illumina). Analysis: Differential gene expression analysis contrasting the factors representing different treatment protocols (CAL101 vs Vehicle; or AKTi vs Vehicle) was performed by running kallisto on the raw paired-end RNA sequencing data (in FASTQ format) to estimate transcript-level read counts based on Ensembl GRCh37 cDNA assembly for each sample (NCBI GEO database Accession Number: GSE101497). Estimated transcript-level counts were aggregated across official gene symbols using the tximport package with mapping provided by the biomaRt utility. […]

[3] = system: ICOS-activated Th17 cells; test: Transcription factor expression (RORγt, cMaf, STAT-3) in ICOS-activated Th17 cells; format: cell-based, mouse; conditions: day 8
Experimental: (§4) Expansion of Th17 cells with Wnt/β-catenin and PI3K inhibitors in vitro: TRP-1 splenocytes were activated with irradiated (10Gy) C57BL/6 splenocytes pulsed with TRP-1 peptide (1 μM) added at a 5:1 ratio in 24-well plates (1 mL media containing 1.5×10^6 cells/well). TRP-1 splenocytes were co-stimulated with soluble ICOS agonist (Clone 398.4A, BioLegend) and polarized toward Th17 phenotype as describe above. For in vitro expansion from day 0 of culture 10 μM Ly294002 (Cayman Chemical) or 10 μM CAL-101 (Selleckchem) and/or 60 μM indomethacin (Sigma-Aldrich) was added. Also dimethylosulfoxide 0.01% (Sigma-Aldrich) was added as a control. Th17 cultures were also supplemented with hrIL-2 (100 IU/mL) and rmIL-23 ([…]; R&D). Medium, including cytokines and inhibitors was refreshed every 2-3 days.
as §3, with “Subsequently, membranes were washed and incubated for 1 h at room temperature with (HRP)-conjugated goat antibodies to mouse or rabbit IgG (Cell Signaling). For detection of protein, chemiluminescence method was performed using Western ECL Blotting Substrate (Bio-Rad) followed by X-ray film-based imaging method (ThermoScientific).” left out
Surface staining of Th17 cells was performed with anti-CD4-APCCy7, anti-Vβ14-FITC (BD Biosciences) anti-CD62L-APC, anti-CD44-PerCPCy5.5, anti-CCR6-PE, anti-CD69-PECy7, anti-CCR7-PE, anti-CD27-PE, anti-CD28-PerCPCy5.5, anti-ICOS-PE and anti-CD25-PECy7/FITC (BioLegend) and viability stain (Invitrogen) on day 8. […] Data were analyzed with FlowJo software (TreeStar). […]

Wnt/β-catenin pathway = Wnt/β-catenin pathway expression in Th17 cells (Western blot, real-time PCR); format: cell-based, mouse; conditions: re-stimulation in vitro; compared to control Th17 cells
Experimental: Total RNA isolation was performed using the Trizol method (Life Technologies) according to the manufacturer's procedure. RNA quantity and purity was assessed using a NanoDrop ND-1000. 1 μg total RNA was transcribed with Transcriptor First Strand cDNA Synthesis Kit (Roche). qReal-time PCR was performed on LightCycler480 machine following manufacturer's protocols (Roche). Probes utilized include Rorc, IL-17, Cmaf IL-21, Cpt-1a, Tcf-7, Lef-1, Cnnb1. All probes are commercially available (ABI). Relative gene expression was determined by the comparative CT method (45). β-actin was used as housekeeping gene.
as §3

[4] = system: ICOS-activated Th17 cells; test: Cytokine production of ICOS-stimulated TRP-1 Th17 cells expanded with inhibitors (intracellular FACS); format: cell-based, mouse
Experimental: as §4, §2

[5] = system: ICOS-activated Th17 cells; test: Memory and regulatory phenotype of ICOS-stimulated Th17 cells expanded with inhibitors (flow cytometry); format: cell-based, mouse
Experimental: as §4
Surface staining of Th17 cells was performed with anti-CD4-APCCy7, anti-Vβ14-FITC (BD Biosciences) anti-CD62L-APC, anti-CD44-PerCPCy5.5, anti-CCR6-PE, anti-CD69-PECy7, anti-CCR7-PE, anti-CD27-PE, anti-CD28-PerCPCy5.5, anti-ICOS-PE and anti-CD25-PECy7/FITC (BioLegend) and viability stain (Invitrogen) on day 8. For all intracellular staining of cytokines (anti-IL-17 PerCPCy5.5, anti-IFN-γ-v450, anti-IL-2-FITC, anti-IL-21-APC, anti-IL-22-PE, anti-TNF-α-FITC; BioLegend) and transcription factors (anti-RORγt-APC, anti-cMaf-PerCPCy5.5, anti-STAT-3-PE, anti-FoxP3-FITC/PE, anti-T-bet-v450; eBiosciences), cells were stimulated for 4-5 h with 50 ng/mL PMA and 750 ng/mL ionomycin (Sigma-Aldrich). Additional antibodies used include: CD127-PECy7 clone A019D5, CD25-APCCy7 clone BC96, CD4-APCCy7 OKT4, CD45RO-APC clone UCHL1, CD62L-FITC clone DREG-56, CD8-PerCPCy5.5 clone SKI, TIM3-PE clone F38-2E2 (biolegend); CCR7-PECy7 clone CCR7, CD8-V450 clone RPA-T8, PD1-FITC clone M1H4, (BD Biosciences). […] Data were analyzed with FlowJo software (TreeStar). […]

[6] = 8 days of expansion, CAL-101 10 μM, Indo 60 μM, Ly294002 10 μM, vs un-treated Th17 cells

## O=c1[nH]c2ccccc2n1C1CCN(Cc2ccc(-c3nc4cc5[nH]cnc5cc4nc3-c3ccccc3)cc2)CC1 [AKTi]
pmel-1 CD8^+ T cells; 10 μM drug
  logarithmic expansion of mouse pmel-1 CD8+ T cells: neither 10 μM AKTi or 10 μM CAL-101 impaired
pmel-1 CD8^+ T cells; 5 days of culture
  CD69 expression: decreased
pmel-1 CD8^+ T cells; 5 days of culture, vehicle 65%
  cells expressing CD62L: nearly all
pmel-1 CD8^+ T cells; in culture
  CD25 expression: slightly reduced
  CD127 expression: substantially elevated
Human T cells [1]
  nuclear Lef1 protein: slightly higher, though not statistically significant
Human T cells [1]; over vehicle
  nuclear Tcf7 protein: did not
Human CD3^+ T cells
  CD25 expression: did not impact
  CD45RO levels: similar
Human CD3^+ T cells; 10 μM drug, 8 days
  growth of human T cells: dramatically inhibited growth
Human CD3^+ T cells; over vehicle
  CD62L expression: slightly increased
Human CD3^+ T cells; post-activation, vs untreated T cells
  TIM3 expression: prevented the up-regulation
Human T cells [2]
  effector transcripts Fos, JunB, Gzmb, Ifng: down-regulated

## CC[C@H](Nc1ncnc2[nH]cnc12)c1nc2cccc(F)c2c(=O)n1-c1ccccc1 [CAL-101]
pmel-1 CD8^+ T cells; sort experiment, bulk vehicle 37%
  CD62L+ cells before transfer: 97%
[3]; control 62.9±4.8%
  cMaf expression: 42.5±3.9%
[3]; control 65.5±9.5%
  RORγt expression: 21.9±8.1%
[3]; control approximately 83%
  STAT-3 expression: 13.8±5.2%

## O=c1cc(N2CCOCC2)oc2c(-c3ccccc3)cccc12 [Ly294002, 2-(4-morpholinyl)-8-phenyl-4H-1-benzopyran-4-one]
Wnt/β-catenin pathway
  Tcf7 protein level after re-stimulation: could not replace the CAL-101 effect on Tcf7 overexpression
[4]; [6]
  IFN-γ production: suppress
  IL-17A production: suppress
[4]; compared with the results for CAL-101 or Indo plus CAL-101
  cytokine secretion pattern overall: Similarly results were obtained
[5]; cultured 8 days and upon secondary stimulation in vitro
  FoxP3 and CD25 expression: expressed more FoxP3 and CD25
[5]; day 8 in vitro
  central memory phenotype (CD44^highCD62L^high): also supported generation of TCM17 cells
